The results in this text go back to patent US9434745B2, “7-oxo-thiazolopyridine carbonic acid derivatives and their use in the treatment, amelioration or prevention of a viral disease” (Savira Pharmaceuticals GmbH, priority 2012, dated 2016).

Series [1] has as its target T1, influenza A virus (IAV) PA-Nter fragment (amino acids 1-209) (Influenza A virus, UniProt P31343).
T1 construct: PA-Nter fragment (amino acids 1-209); made in house
The series is described as follows: FRET endonuclease activity assay. It is filed as biochemical. The settings on record: for inhibition at 10 µM / inhibition at 25 µM / inhibition at 1 µM / inhibition at 50 µM / inhibition at 5 µM: read-out: FRET % reduction of v0; for IC50: from initial reaction velocities (v0) of RNA substrate cleavage.

In general, melting point refers to the temperature of the solid-liquid transition. As a reminder, the IC50 is the midpoint of a concentration-inhibition curve.

For `CCOC(=O)c1cn(CCc2ccccc2)c2cc(C(C)C)nn2c1=O`, the melting point was in the range of 130 to 135 °C.
Take `O=C(O)c1cn(Cc2ccccc2-c2ccccc2)c2scnc2c1=O`: the inhibition at 10 µM in series [1] came to 64%.
Consider `O=C(O)c1cn(Cc2ccccc2-c2ccccc2)c2sc(N3CCOCC3)nc2c1=O`, for which the IC50 in series [1] is 0.78 µM.
In turn, `CNc1nc2c(=O)c(C(=O)O)cn(Cc3ccccc3-c3ccccc3)c2s1` gave an IC50 in series [1] of 2.8 µM. This IC50 lies about 3.6-fold higher than the previous one.
With `Nc1cc2n(S(=O)(=O)Cc3ccccc3)cc(C(=O)O)c(=O)n2n1`, in series [1], the inhibition at 25 µM was 50%.
Consider `O=C(O)c1cn(CCc2cccc(F)c2)c2cc(C3CC3)nn2c1=O` [drawing 226], for which inhibition in series [1] was half-maximal at 62 µM (IC50).
On to `O=C(O)c1cn(CCc2cccc(Cl)c2)c2cc(C3CC3)nn2c1=O`, for which the melting point was in the range of 230 to 235 °C.
The same measure, in the same setting: to `O=C(O)Cc1c[nH]c2cc(C3CC3)nn2c1=O` belongs more than 300 °C.
The compound `O=C(O)c1cn(Cc2ccccc2-c2ccccc2)c2sc(NS(=O)(=O)Cc3ccc(Cl)cc3Cl)nc2c1=O` displayed an IC50 in series [1] of 7 µM.
Compound `CCOC(=O)Cc1c[nH]c2nc(Nc3ccccc3)nn2c1=O` yielded a melting point of 255 to 257 °C.
Same read-out and setting: with `CCOC(=O)c1cn(CCCc2ccccc2)c2cc(C3CC3)nn2c1=O` the figure was 150 to 155 °C; with `CC(C)c1cc2n(CCc3ccccc3)cc(C(=O)O)c(=O)n2n1`, 220 to 225 °C.
Consider `O=C(O)c1c[nH]c2nc(NCc3ccccc3)nn2c1=O` [drawing 216], for which the IC50 in series [1] came to 50 µM.
On to `COc1ccc(S(=O)(=O)Nc2nc3c(=O)c(C(=O)O)cn(C(c4ccccc4)c4ccccc4)c3s2)cc1`, for which the inhibition at 1 µM in series [1] worked out at 7.8%.
As for `O=C(O)c1cn(CCc2ccc(C(F)(F)F)cc2)c2cc(C3CC3)nn2c1=O`, the melting point lay within 225 to 230 °C.
Turning to `O=C(O)c1cn(CCc2ccccc2)c2cc(C3CCCC3)nn2c1=O`, the melting point was 198 to 200 °C.
As to `O=C(O)c1c[nH]c2cc(C3CCCC3)nn2c1=O`, the inhibition at 25 µM in series [1] was determined as 41%.
For `O=C(O)c1cn(Cc2ccccc2-c2ccccc2)c2sc(NC3CC3)nc2c1=O`, the IC50 in series [1] turned out to be 2.5 µM.
Consider `O=C(O)c1cn(CCc2ccc(Cl)cc2)c2cc(C3CC3)nn2c1=O`, for which the melting point is 220 to 225 °C.
On to `CCOC(=O)c1c[nH]c2nc(Nc3ccc(C)c(Cl)c3)nn2c1=O`, for which the melting point is more than 340 °C.
Consider `CCOC(=O)c1ccc(S(=O)(=O)Nc2nc3c(=O)c(C(=O)OCC)cn(Cc4ccccc4-c4ccccc4)c3s2)cc1`, for which, in series [1], the inhibition at 1 µM was found to be 8.1%.
`CCOC(=O)c1c[nH]c2nc(Nc3ccc(NC(C)=O)cc3)nn2c1=O` yielded a melting point of more than 330 °C.
In the case of `O=C(O)c1cn(CCc2ccccc2)c2cc(C3CCCC3)nn2c1=O` [drawing 219], the inhibition at 25 µM in series [1] was determined as 42%.
The same measure, in the same setting: with `Nc1cc2n(C(=O)C3(c4ccccc4)CCCC3)cc(C(=O)O)c(=O)n2n1` [drawing 220] the figure was 20%.
The same measure, in the same setting: to `CS(=O)(=O)n1cc(C(=O)O)c(=O)n2nc(N)cc12` belongs 31%.
The compound `CCOC(=O)Cc1cn(C)c2cc(C3CC3)nn2c1=O` showed a melting point of 147 to 150 °C.
Compound `O=C(O)c1cn(CCc2cccc(C(F)(F)F)c2)c2cc(C3CC3)nn2c1=O` gave a melting point of 200 to 205 °C.
Turning to `CCOC(=O)c1c[nH]c2nc(NCc3cccc4ccccc34)nn2c1=O`, the melting point lay within 273 to 275 °C.
Regarding `CC(C)Nc1nc2c(=O)c(C(=O)O)cn(Cc3ccccc3-c3ccccc3)c2s1`, half-maximal inhibition in series [1] (IC50) was put at 14 µM.
`O=C(NCCc1ccc(Cl)cc1)c1cc2[nH]cc(C(=O)O)c(=O)n2n1` gave a melting point of more than 300 °C.
Turning to `O=C(O)c1cn(C(c2ccccc2)c2ccccc2)c2sc(NS(=O)(=O)c3ccc(Cl)cc3F)nc2c1=O`, in series [1], the inhibition at 1 µM is 2%.
In turn, `CCOC(=O)c1cn(CCc2ccccc2)c2cc(C3CCCC3)nn2c1=O` had a melting point of 162 to 164 °C.
As for `CC(C)c1cc2[nH]cc(C(=O)O)c(=O)n2n1`, in series [1], 35 µM corresponded to half-maximal inhibition (IC50).
`CCOC(=O)c1c[nH]c2nc(NCc3ccc(Br)cc3)nn2c1=O` registered a melting point of 286 to 287 °C.
As for `O=C(O)c1cn(Cc2ccccc2-c2ccccc2)c2ccnn2c1=O`, the inhibition at 50 µM in series [1] came to 29%.
Take `CCOC(=O)c1cn(CCc2ccc(O)cc2)c2cc(C3CC3)nn2c1=O`: the melting point was 95 to 100 °C.
Still for that read-out and setting: to `CC(C)c1cc2n(Cc3ccccc3)cc(C(=O)O)c(=O)n2n1` belongs 180 to 185 °C; to `O=C(O)c1c[nH]c2cc(C(F)(F)F)nn2c1=O`, more than 340 °C; to `CCOC(=O)c1cn(CCc2ccccc2)c2cc(C3CC3)nn2c1=O`, 155 to 160 °C.
For `O=C(O)c1cn(CCc2cccc(Cl)c2)c2cc(C3CC3)nn2c1=O` [drawing 224], in series [1], the inhibition at 25 µM was 30%.
Consider `CCOC(=O)c1cn(C(c2ccccc2)c2ccccc2)c2sc(NS(=O)(=O)c3ccc(OC)cc3)nc2c1=O`, for which the inhibition at 1 µM in series [1] was found to be 25%.
In series [1], `COc1ccc(CNc2nc3c(=O)c(C(=O)O)cn(Cc4ccc(Cl)cc4-c4ccccc4)c3s2)cc1` registered a concentration for half-maximal inhibition (IC50) of 3.8 µM. That is a single-digit micromolar value.
As to `COc1ccc(CNc2nc3c(=O)c(C(=O)O)cn(C(c4ccccc4)c4ccccc4)c3s2)cc1`, the inhibition at 10 µM in series [1] is 21.5%.
As to `O=C(O)c1cn(CCc2cccc(F)c2)c2cc(C3CC3)nn2c1=O`, the melting point fell in the range of 220 to 225 °C.
The compound `O=CNc1nc2c(=O)c(C(=O)O)cn(Cc3ccccc3-c3ccccc3)c2s1` gave an IC50 in series [1] of 4.7 µM.
Compound `COc1ccc(CCn2cc(C(=O)O)c(=O)n3nc(C4CC4)cc23)cc1` gave a melting point of 145 to 150 °C.
Take `O=C(O)c1c[nH]c2ccnn2c1=O`: half-maximal inhibition in series [1] (IC50) was put at 58 µM.
Still for that read-out and setting: with `CS(=O)(=O)Nc1nc2c(=O)c(C(=O)O)cn(Cc3ccccc3-c3ccccc3)c2s1` the figure was 8.1 µM.
Regarding `O=C(O)c1cn(CCc2cccc(C(F)(F)F)c2)c2cc(C3CC3)nn2c1=O` [drawing 225], the inhibition at 25 µM in series [1] is 32%.
Compound `CCOC(=O)c1cn(CCc2cccc(Cl)c2)c2cc(C3CC3)nn2c1=O` yielded a melting point of 160 to 165 °C.
`O=C(O)c1cn(C(c2ccccc2)c2ccccc2)c2sc(O)nc2c1=O`: the IC50 in series [1] was 0.78 µM.
The compound `O=C(O)c1cn(Cc2ccccc2-c2ccccc2)c2sc(NCc3ccccc3)nc2c1=O` showed an IC50 in series [1] of 3.2 µM. Compared with the last compound, the IC50 is about 4.1-fold higher.
In series [1], `O=C(O)c1cn(Cc2ccccc2-c2ccccc2)c2sc(NS(=O)(=O)c3ccccc3)nc2c1=O` had an IC50 of 6.5 µM.
`Nc1cc2n(Cc3ccccc3)cc(C(=O)O)c(=O)n2n1`: the inhibition at 50 µM in series [1] worked out at 35%.
Turning to `O=C(O)c1cn(CCc2ccc(O)cc2)c2cc(C3CC3)nn2c1=O` [drawing 227], the inhibition at 25 µM in series [1] came to 27%.
`O=C(O)c1cn(Cc2ccccc2-c2ccccc2)c2sc(NCc3cccc(Cl)c3)nc2c1=O` came in with an IC50 in series [1] of 5.2 µM.
The same measure, in the same setting: with `Nc1nc2c(=O)c(C(=O)O)cn(Cc3ccccc3-c3ccccc3)c2s1` the figure was 0.94 µM; with `COCCNc1nc2c(=O)c(C(=O)O)cn(Cc3ccccc3-c3ccccc3)c2s1`, 9 µM; with `O=C(O)c1cn(Cc2ccccc2-c2ccccc2)c2sc(O)nc2c1=O`, 0.16 µM.
On the same count and under the same terms, with `COc1ccc(S(=O)(=O)Nc2nc3c(=O)c(C(=O)O)cn(Cc4ccccc4-c4ccc(Cl)cc4)c3s2)cc1` the figure was 7.2 µM; with `COc1ccc(CNc2nc3c(=O)c(C(=O)O)cn(Cc4ccccc4-c4ccccc4)c3s2)cc1`, 2.9 µM; with `COc1ccc(S(=O)(=O)Nc2nc3c(=O)c(C(=O)O)cn(Cc4ccccc4-c4ccccc4)c3s2)cc1`, 2.7 µM.
Still for that read-out and setting: with `Cc1ccc(C)c(-c2ccccc2Cn2cc(C(=O)O)c(=O)c3nc(O)sc32)c1` the figure was 0.25 µM.
Turning to `CC(C)c1cc2n(CCCc3ccccc3)cc(C(=O)O)c(=O)n2n1` [drawing 222], in series [1], the inhibition at 25 µM amounted to 22%.
In series [1], `O=C(O)c1cn(Cc2ccc(Cl)cc2-c2ccccc2)c2sc(O)nc2c1=O` came in with an IC50 of 0.87 µM.
For `CCOC(=O)c1cn(Cc2ccccc2-c2ccccc2)c2sc(NCc3c(Cl)cccc3Cl)nc2c1=O`, in series [1], the IC50 came out at 6.3 µM.
Turning to `CC(C)c1cc2n(CCCc3ccccc3)cc(C(=O)O)c(=O)n2n1` [drawing 215], the inhibition at 5 µM in series [1] came out at 23%.
As to `O=C(O)c1cn(Cc2ccccc2-c2ccccc2)c2sc(NS(=O)(=O)c3ccc(Cl)cc3F)nc2c1=O`, in series [1], the IC50 stood at 5.7 µM. This counts as single-digit micromolar.
`O=C(O)c1cn(Cc2ccccc2-c2ccccc2)c2sc(NS(=O)(=O)Cc3ccccc3)nc2c1=O`: the IC50 in series [1] came out at 7.3 µM.
Still for that read-out and setting: to `Nc1cc2[nH]cc(C(=O)O)c(=O)n2n1` belongs 10 µM.
Take `Nc1cc2n(Cc3ccccc3-c3ccccc3)cc(C(=O)O)c(=O)n2n1`: the inhibition at 10 µM in series [1] is 38%.
With `CCOC(=O)c1cn(Cc2ccccc2-c2ccccc2)c2sc(NS(=O)(=O)c3ccc(Cl)cc3)nc2c1=O`, the inhibition at 1 µM in series [1] turned out to be 6.2%.
Take `COc1ccc(CCn2cc(C(=O)O)c(=O)n3nc(C4CC4)cc23)cc1` [drawing 228]: the midpoint of inhibition in series [1], the IC50, lay at 69 µM.
As for `CC(Nc1nc2c(=O)c(C(=O)O)cn(Cc3ccccc3-c3ccccc3)c2s1)c1ccccc1` (centres unmarked), half-maximal inhibition in series [1] (IC50) was put at 5.8 µM.
In series [1], `N#Cc1ccc(S(=O)(=O)Nc2nc3c(=O)c(C(=O)O)cn(Cc4ccccc4-c4ccc(Cl)cc4)c3s2)cc1` displayed an IC50 of 2.5 µM.
In series [1], `COc1ccc(CNc2nc3c(=O)c(C(=O)O)cn(Cc4ccccc4-c4cc(C)ccc4C)c3s2)cc1` had an IC50 of 2.1 µM.
For the compound `O=C(O)c1c[nH]c2ncnn2c1=O`, the inhibition at 5 µM in series [1] stood at 26%.
In series [1], `O=C(O)c1cn(Cc2ccccc2-c2ccccc2)c2sc(NCc3ccc(Cl)cc3)nc2c1=O` gave an IC50 of 2.3 µM.
On the same count and under the same terms, to `O=c1cc[nH]c2nc(NS(=O)(=O)Cc3ccccc3)nn12` belongs 34 µM; to `O=C(O)c1cn(Cc2ccccc2-c2ccccc2)c2sc(NS(=O)(=O)c3cccc(F)c3)nc2c1=O`, 6.7 µM.
Consider `CCOC(=O)c1cn(C(c2ccccc2)c2ccccc2)c2sc(NS(=O)(=O)c3ccc(Cl)cc3F)nc2c1=O`, for which, in series [1], the inhibition at 1 µM came to 5.6%.
The compound `Nc1cc2n(S(=O)(=O)c3ccccc3)cc(C(=O)O)c(=O)n2n1` registered an IC50 in series [1] of 71 µM. That is a double-digit micromolar value.
For the compound `CCOC(=O)c1cn(CCc2ccc(O)cc2)c2cc(C3CC3)nn2c1=O` [drawing 223], in series [1], the inhibition at 25 µM was determined as 22%.
